22 molecules from patent US20250215012A1, “IKZF2 DEGRADERS AND USES THEREOF” (REGENTS OF THE UNIVERSITY OF MICHIGAN, priority 2022, published 2025) can be followed below.

Assay [1] concerns the target IKZF2 (Homo sapiens (Human), UniProt Q96SW2+Q9UKS7). Briefly: IKZF2 HiBiT Assay (Jurkat-IKZF2-HiBiT cell line). Type of assay: cell-based. The following applies: for DC50: read-out: HiBit assay degradation analysis DC50; for Dmax: read-out: HiBit assay degradation analysis Dmax. An outline of the steps:
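Jurkat cells carrying HiBiT-tagged IKZF2 were exposed to serially diluted compound for 24 h at 37 °C. Remaining IKZF2 was measured by Nano-Glo HiBiT lytic luminescence after 10-20 min at room temperature. Signal was normalized to DMSO, and IC50 came from a four-parameter variable-slope fit.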
On the technique in general: With HiBiT, luminescence reflects the tagged protein that the partner subunit can reach.

For assay [2], the target named is GST-tagged wild-type human CRBN protein (Homo sapiens (Human), UniProt Q96SW2). The experiment in a line: Cereblon Binding Assay (Cisbio Cereblon Binding Kit, TR-FRET). As to conditions: about 3 hours at room temperature. As for the experimental part: The binding to cereblon (CRBN) is determined using the Cereblon Binding Kit (Cisbio, #64BDCRBNPEG) following the manufacturer's instruction. Briefly, serially diluted compounds are incubated with GST-tagged wild-type human CRBN protein, XL665-labelled Thalidomide and Europium Cryptate labelled GST antibody.
The binding to cereblon (CRBN) was determined using the Cereblon Binding Kit (Cisbio, #64BDCRBNPEG) following the manufacturer's instruction. Briefly, serially diluted compounds were incubated with GST-tagged wild-type human CRBN protein, XL665-labelled Thalidomide and Europium Cryptate labelled GST antibody at room temperature for about 3 hours.
(In TR-FRET formats the signal depends on donor and acceptor labels being close together.)

[3] abbreviates: Jurkat-IKZF2-HiBiT cells, 24 hours.

Like-named read-outs stand apart in the source and are kept apart here. A value given as a limit tells only on which side of the number the result lay.

IKZF2, sequence (Q9UKS7 whole entry): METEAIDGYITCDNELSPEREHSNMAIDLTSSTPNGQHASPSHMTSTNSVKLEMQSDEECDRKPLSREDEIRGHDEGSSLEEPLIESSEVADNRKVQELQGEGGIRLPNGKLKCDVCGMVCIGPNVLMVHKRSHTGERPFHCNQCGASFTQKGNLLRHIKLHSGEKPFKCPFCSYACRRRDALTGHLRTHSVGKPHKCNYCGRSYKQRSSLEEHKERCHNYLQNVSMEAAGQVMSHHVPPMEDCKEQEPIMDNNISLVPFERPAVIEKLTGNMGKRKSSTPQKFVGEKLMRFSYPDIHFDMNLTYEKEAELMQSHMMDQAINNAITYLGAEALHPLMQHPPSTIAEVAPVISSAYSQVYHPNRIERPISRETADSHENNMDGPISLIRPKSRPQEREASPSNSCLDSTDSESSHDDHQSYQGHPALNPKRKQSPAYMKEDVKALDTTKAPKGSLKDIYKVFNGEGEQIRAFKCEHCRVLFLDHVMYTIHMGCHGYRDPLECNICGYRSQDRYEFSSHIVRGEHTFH
IKZF2, sequence (Q96SW2 whole entry): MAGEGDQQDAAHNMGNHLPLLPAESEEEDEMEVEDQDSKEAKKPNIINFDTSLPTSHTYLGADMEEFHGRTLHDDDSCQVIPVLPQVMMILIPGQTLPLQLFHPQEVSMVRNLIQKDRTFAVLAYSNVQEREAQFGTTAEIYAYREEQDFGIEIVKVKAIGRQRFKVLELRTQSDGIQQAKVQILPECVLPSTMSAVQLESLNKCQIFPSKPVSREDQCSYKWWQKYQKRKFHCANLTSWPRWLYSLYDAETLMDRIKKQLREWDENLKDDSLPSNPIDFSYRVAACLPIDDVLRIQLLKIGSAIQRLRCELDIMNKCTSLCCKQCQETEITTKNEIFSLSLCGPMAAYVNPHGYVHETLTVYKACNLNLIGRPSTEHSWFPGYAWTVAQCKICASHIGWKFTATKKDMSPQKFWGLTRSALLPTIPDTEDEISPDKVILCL
IKZF2, sequence (Q16531 whole entry partner): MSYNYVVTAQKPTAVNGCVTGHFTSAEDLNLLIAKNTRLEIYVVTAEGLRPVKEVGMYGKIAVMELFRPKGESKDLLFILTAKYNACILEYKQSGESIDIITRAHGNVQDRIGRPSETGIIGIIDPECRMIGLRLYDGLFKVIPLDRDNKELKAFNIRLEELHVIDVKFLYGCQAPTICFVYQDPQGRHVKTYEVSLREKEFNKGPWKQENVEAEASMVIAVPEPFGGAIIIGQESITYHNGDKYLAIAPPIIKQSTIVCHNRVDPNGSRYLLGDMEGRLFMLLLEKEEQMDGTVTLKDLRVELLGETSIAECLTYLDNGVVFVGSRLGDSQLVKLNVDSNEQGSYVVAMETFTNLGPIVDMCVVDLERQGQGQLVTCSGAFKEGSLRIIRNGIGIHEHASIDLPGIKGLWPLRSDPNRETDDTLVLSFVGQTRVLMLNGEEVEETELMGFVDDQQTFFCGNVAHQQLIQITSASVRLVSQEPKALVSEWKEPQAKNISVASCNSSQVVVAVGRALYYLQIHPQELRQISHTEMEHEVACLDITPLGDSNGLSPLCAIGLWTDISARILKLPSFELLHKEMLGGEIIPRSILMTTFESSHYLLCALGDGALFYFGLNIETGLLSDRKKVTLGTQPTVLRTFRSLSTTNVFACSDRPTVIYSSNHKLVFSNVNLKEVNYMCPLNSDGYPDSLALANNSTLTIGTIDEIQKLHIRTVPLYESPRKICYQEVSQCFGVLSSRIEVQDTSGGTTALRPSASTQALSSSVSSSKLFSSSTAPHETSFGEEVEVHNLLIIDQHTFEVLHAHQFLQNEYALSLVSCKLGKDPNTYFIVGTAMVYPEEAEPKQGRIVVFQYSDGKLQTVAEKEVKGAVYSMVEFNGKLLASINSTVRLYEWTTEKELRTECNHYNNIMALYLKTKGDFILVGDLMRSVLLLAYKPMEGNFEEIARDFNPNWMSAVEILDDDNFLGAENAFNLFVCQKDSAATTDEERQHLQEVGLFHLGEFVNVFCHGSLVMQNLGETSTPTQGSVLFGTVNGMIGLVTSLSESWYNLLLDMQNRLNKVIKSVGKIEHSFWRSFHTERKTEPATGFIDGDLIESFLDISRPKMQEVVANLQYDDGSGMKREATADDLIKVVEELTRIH
GST-tagged wild-type human CRBN protein, sequence (Q96SW2 whole entry): as the sequence (Q96SW2 whole entry) above

Usually DC50 stands for the concentration at which degradation of the target reaches its halfway point. The term Dmax denotes the greatest extent of degradation seen. What is called IC50 is the concentration that inhibits the measured activity by half. On to `O=C1CCC(N2Cc3c(ccc4c3OCC43CCN(Cc4cccc(-c5ccncc5)c4)CC3)C2=O)C(=O)N1` (stereo not drawn) [Compound A133, 3-(6-oxo-1′-(3-(pyridin-4-yl)benzyl)-6,8-dihydro-2H,7H-spiro[furo[2,3-e]isoindole-3,4′-piperidin]-7-yl)piperidine-2,6-dione], for which, in assay [1] (setting [3]), the DC50 was below 50 nM and the Dmax was 60 to 80%. In assay [2], this molecule had an IC50 of 100 to 1000 nM.

As to `O=C1CCC(N2Cc3c(ccc4c3OCC43CCN(Cc4ccc5c(c4)C(=O)NC5)CC3)C2=O)C(=O)N1` (stereo not drawn) [Compound A122, 3-(6-oxo-1′-((3-oxoisoindolin-5-yl)methyl)-6,8-dihydro-2H,7H-spiro[furo[2,3-e]isoindole-3,4′-piperidin]-7-yl)piperidine-2,6-dione], in assay [1] (setting [3]), the DC50 is 50 to 200 nM and the Dmax is 60 to 80%. The molecule also yielded an IC50 in assay [2] of 100 to 1000 nM.

With `CCn1cc(-c2cccc(CN3CCC4(CC3)COc3c4ccc4c3CN(C3CCC(=O)NC3=O)C4=O)c2)cn1` (stereo not drawn) [Compound A145, 3-(1′-(3-(1-ethyl-1H-pyrazol-4-yl)benzyl)-6-oxo-6,8-dihydro-2H,7H-spiro[furo[2,3-e]isoindole-3,4′-piperidin]-7-yl)piperidine-2,6-dione], in assay [1] (setting [3]), the DC50 was below 50 nM and the Dmax was 60 to 80%. Moreover, the concentration for half-maximal inhibition (IC50) in assay [2] was 10 to 100 nM.

For the molecule `O=C1CCC(N2Cc3c(ccc4c3OCC43CCN(Cc4ccccc4)CC3)C2=O)C(=O)N1` (stereo not drawn) [Compound A8, 3-(1′-benzyl-6-oxo-6,8-dihydro-2H,7H-spiro[furo[2,3-e]isoindole-3,4′-piperidin]-7-yl)piperidine-2,6-dione], in assay [1] (setting [3]), the DC50 lay in the range of 200 to 500 nM and the greatest degradation seen (Dmax) lay in the range of 40 to 60%. In assay [2], this molecule had an IC50 of 100 to 1000 nM.

`O=C1CCC(N2Cc3c(ccc4c3OCC43CCNCC3)C2=O)C(=O)N1` (stereo not drawn) [Compound A1, 3-(6-oxo-6,8-dihydro-2H,7H-spiro[furo[2,3-e]isoindole-3,4′-piperidin]-7-yl)piperidine-2,6-dione]: the DC50 in assay [1] (setting [3]) was above 500 nM. In addition, in assay [1], the Dmax was below 40%. In assay [2], this molecule came in with an IC50 above 1000 nM.

`O=C1CCC(N2Cc3c(ccc4c3OCC43CCN(Cc4cccc(-c5cccnc5)c4)CC3)C2=O)C(=O)N1` (stereo not drawn) [Compound A132, 3-(6-oxo-1′-(3-(pyridin-3-yl)benzyl)-6,8-dihydro-2H,7H-spiro[furo[2,3-e]isoindole-3,4′-piperidin]-7-yl)piperidine-2,6-dione]: in assay [1] (setting [3]), the 50% degradation concentration (DC50) was below 50 nM and the Dmax was in the range of 60 to 80%. The IC50 in assay [2] fell in the range of 100 to 1000 nM.

Turning to `O=C1CCC(N2Cc3c(ccc4c3OCC43CCN(Cc4ccc(C(F)F)cc4)CC3)C2=O)C(=O)N1` (stereo not drawn) [Compound A3, 3-(1′-(4-(difluoromethyl)benzyl)-6-oxo-6,8-dihydro-2H,7H-spiro[furo[2,3-e]isoindole-3,4′-piperidin]-7-yl)piperidine-2,6-dione], in assay [1] (setting [3]), the DC50 is above 500 nM and the Dmax was in the range of 40 to 60%. In assay [2], this molecule showed a 50% inhibitory concentration (IC50) of 10 to 100 nM.

`O=C1CCC(N2Cc3c(ccc4c3OCC43CCN(Cc4cccc5cn[nH]c45)CC3)C2=O)C(=O)N1` (stereo not drawn) [Compound A52, 3-(1′-((1H-indazol-7-yl)methyl)-6-oxo-6,8-dihydro-2H,7H-spiro[furo[2,3-e]isoindole-3,4′-piperidin]-7-yl)piperidine-2,6-dione]: in assay [1] (setting [3]), the half-maximal degradation concentration (DC50) is below 50 nM and the greatest degradation seen (Dmax) fell in the range of 60 to 80%. For the same molecule, the IC50 in assay [2] lay within 10 to 100 nM.

In the case of `O=C1CCC(N2Cc3c(ccc4c3OCC43CCN(Cc4cccc(F)c4)CC3)C2=O)C(=O)N1` (stereo not drawn) [Compound A29, 3-(1′-(3-fluorobenzyl)-6-oxo-6,8-dihydro-2H,7H-spiro[furo[2,3-e]isoindole-3,4′-piperidin]-7-yl)piperidine-2,6-dione], in assay [1] (setting [3]), the DC50 was above 500 nM and the greatest degradation seen (Dmax) was in the range of 40 to 60%. Besides, in assay [2], the IC50 was above 1000 nM.

For the molecule `Cn1cc2ccc(CN3CCC4(CC3)COc3c4ccc4c3CN(C3CCC(=O)NC3=O)C4=O)cc2n1` (stereo not drawn) [Compound A69, 3-(1′-((2-methyl-2H-indazol-6-yl)methyl)-6-oxo-6,8-dihydro-2H,7H-spiro[furo[2,3-e]isoindole-3,4′-piperidin]-7-yl)piperidine-2,6-dione], in assay [1] (setting [3]), the 50% degradation concentration (DC50) is below 50 nM and the Dmax is 60 to 80%. In assay [2], the IC50 fell in the range of 100 to 1000 nM.

Turning to `O=C1CCC(N2Cc3c(ccc4c3OCC43CCN(Cc4ccc(F)c(F)c4)CC3)C2=O)C(=O)N1` (stereo not drawn) [Compound A5, 3-(1′-(3,4-difluorobenzyl)-6-oxo-6,8-dihydro-2H,7H-spiro[furo[2,3-e]isoindole-3,4′-piperidin]-7-yl)piperidine-2,6-dione], in assay [1] (setting [3]), the 50% degradation concentration (DC50) was above 500 nM and the Dmax is below 40%. Moreover, in assay [2], the IC50 was 100 to 1000 nM.

Turning to `O=C1CCC(N2Cc3c(ccc4c3OCC43CCN(Cc4ccc5cc[nH]c5c4)CC3)C2=O)C(=O)N1` (stereo not drawn) [Compound A129, 3-(1′-((1H-indol-6-yl)methyl)-6-oxo-6,8-dihydro-2H,7H-spiro[furo[2,3-e]isoindole-3,4′-piperidin]-7-yl)piperidine-2,6-dione], in assay [1] (setting [3]), the DC50 is below 50 nM and the Dmax was in the range of 60 to 80%. In addition, in assay [2], the IC50 fell in the range of 10 to 100 nM.

`O=C1CCC(N2Cc3c(ccc4c3OCC43CCN(Cc4ccc5cn[nH]c5c4)CC3)C2=O)C(=O)N1` (stereo not drawn) [Compound A56, 3-(1′-((1H-indazol-6-yl)methyl)-6-oxo-6,8-dihydro-2H,7H-spiro[furo[2,3-e]isoindole-3,4′-piperidin]-7-yl)piperidine-2,6-dione]: in assay [1] (setting [3]), the DC50 was below 50 nM and the Dmax lay within 60 to 80%. This molecule also registered an IC50 in assay [2] of 100 to 1000 nM.

Regarding `Cn1cc(-c2cccc(CN3CCC4(CC3)COc3c4ccc4c3CN(C3CCC(=O)NC3=O)C4=O)c2)cn1` (stereo not drawn) [Compound A105, 3-(1′-(3-(1-methyl-1H-pyrazol-4-yl)benzyl)-6-oxo-6,8-dihydro-2H,7H-spiro[furo[2,3-e]isoindole-3,4′-piperidin]-7-yl)piperidine-2,6-dione], in assay [1] (setting [3]), the DC50 was below 50 nM and the maximal degradation (Dmax) lay within 60 to 80%. For the same molecule, the half-inhibitory concentration (IC50) in assay [2] lay in the range of 100 to 1000 nM.

`Cn1ccc(-c2cccc(CN3CCC4(CC3)COc3c4ccc4c3CN(C3CCC(=O)NC3=O)C4=O)c2)n1` (stereo not drawn) [Compound A134, 3-(1′-(3-(1-methyl-1H-pyrazol-3-yl)benzyl)-6-oxo-6,8-dihydro-2H,7H-spiro[furo[2,3-e]isoindole-3,4′-piperidin]-7-yl)piperidine-2,6-dione]: in assay [1] (setting [3]), the DC50 is below 50 nM and the greatest degradation seen (Dmax) lay in the range of 60 to 80%. In addition, the IC50 in assay [2] is 100 to 1000 nM.

For the molecule `O=C1CCC(N2Cc3c(ccc4c3OCC43CCN(Cc4cccc(-c5cnn(C6COC6)c5)c4)CC3)C2=O)C(=O)N1` (stereo not drawn) [Compound A161, 3-(1′-(3-(1-(oxetan-3-yl)-1H-pyrazol-4-yl)benzyl)-6-oxo-6,8-dihydro-2H,7H-spiro[furo[2,3-e]isoindole-3,4′-piperidin]-7-yl)piperidine-2,6-dione], in assay [1] (setting [3]), the DC50 is below 50 nM and the greatest degradation seen (Dmax) is 60 to 80%. The IC50 in assay [2] is 10 to 100 nM.

As for `O=C1CCC(N2Cc3c(ccc4c3OCC43CCN(Cc4cccc(CO)c4)CC3)C2=O)C(=O)N1` (stereo not drawn) [Compound A98, 3-(1′-(3-(hydroxymethyl)benzyl)-6-oxo-6,8-dihydro-2H,7H-spiro[furo[2,3-e]isoindole-3,4′-piperidin]-7-yl)piperidine-2,6-dione], in assay [1] (setting [3]), the half-maximal degradation concentration (DC50) lay in the range of 50 to 200 nM and the Dmax is 60 to 80%. Further, in assay [2], the IC50 fell in the range of 100 to 1000 nM.

As to `O=C1CCC(N2Cc3c(ccc4c3OCC43CCN(Cc4ccc5ccoc5c4)CC3)C2=O)C(=O)N1` (stereo not drawn) [Compound A116, 3-(1′-(benzofuran-6-ylmethyl)-6-oxo-6,8-dihydro-2H,7H-spiro[furo[2,3-e]isoindole-3,4′-piperidin]-7-yl)piperidine-2,6-dione], in assay [1] (setting [3]), the DC50 was below 50 nM and the Dmax was 60 to 80%. For the same molecule, the IC50 in assay [2] is 100 to 1000 nM.

With `CCc1ccc(CN2CCC3(CCOc4c3ccc3c4CN(C4CCC(=O)NC4=O)C3=O)CC2)cc1` (stereo not drawn) [Compound A11, 3-(1-(4-ethylbenzyl)-7′-oxo-2′,3′,7′,9′-tetrahydro-8′H-spiro[piperidine-4,4′-pyrano[2,3-e]isoindol]-8′-yl)piperidine-2,6-dione], in assay [1] (setting [3]), the half-maximal degradation concentration (DC50) is above 500 nM and the greatest degradation seen (Dmax) is 40 to 60%. The same molecule showed a 50% inhibitory concentration (IC50) in assay [2] of 10 to 100 nM.

For `O=C1CCC(N2Cc3c(ccc4c3OCC43CCN(Cc4cccc(-c5cnco5)c4)CC3)C2=O)C(=O)N1` (stereo not drawn) [Compound A125, 3-(1′-(3-(oxazol-5-yl)benzyl)-6-oxo-6,8-dihydro-2H,7H-spiro[furo[2,3-e]isoindole-3,4′-piperidin]-7-yl)piperidine-2,6-dione], in assay [1] (setting [3]), the 50% degradation concentration (DC50) was below 50 nM and the maximal degradation (Dmax) lay within 60 to 80%. Also, the IC50 in assay [2] is 100 to 1000 nM.

Take `Cc1ccc(CN2CCC3(CC2)COc2c3ccc3c2CN(C2CCC(=O)NC2=O)C3=O)cc1` (stereo not drawn) [Compound A15, 3-(1′-(4-methylbenzyl)-6-oxo-6,8-dihydro-2H,7H-spiro[furo[2,3-e]isoindole-3,4′-piperidin]-7-yl)piperidine-2,6-dione]: in assay [1] (setting [3]), the DC50 was 200 to 500 nM and the Dmax was 40 to 60%. This molecule had a 50% inhibitory concentration (IC50) in assay [2] of 100 to 1000 nM.

In the case of `O=C1CCC(N2Cc3c(ccc4c3OCC43CCN(Cc4cc(Br)cc5[nH]ncc45)CC3)C2=O)C(=O)N1` (stereo not drawn) [Compound A127, 3-(1′-((6-bromo-1H-indazol-4-yl)methyl)-6-oxo-6,8-dihydro-2H,7H-spiro[furo[2,3-e]isoindole-3,4′-piperidin]-7-yl)piperidine-2,6-dione], in assay [1] (setting [3]), the DC50 was below 50 nM and the Dmax was in the range of 40 to 60%. In assay [2], this molecule gave an IC50 of 100 to 1000 nM.
